This note sets out measurements from ChEMBL document CHEMBL1201862, “PubChem BioAssay data set” (2004).

The subject of one assay is CHO. Nature of the assay: CHO cell viability loss, potency – luminescence, cytotoxicity control for TLR9-MyD88 binding inhibitor project, dose response (AID 588339).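 Also: CHO cells stably coexpressing TLR9 and MyD88 fusions from primary screen; compound exposure lasted 48 hours before viability readout.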 The format is functional, cell-based, hamster. The settings on record: Cricetulus griseus.
Another assay concerns the target Beta Lactamase (Pseudomonas aeruginosa, UniProt Q932Y6). Nature of the assay: BLA reporter interference, concentration series – BLA reporter cells, FRET fluorescence, artefact control for TLR9-MyD88 binding inhibitor project, dose response (AID 588341).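 Also: cell based assay in CHO-K1 cells stably expressing beta-lactamase.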 The format is cell-based.
The target of assay [1] is Serine/threonine-protein phosphatase (Candida dubliniensis (strain CD36 / CBS 7987 / NCPF 3949 / NRRLY-17841) (Yeast), UniProt B9W6M3). Briefly: blockers of CaCl2-induced CDRE-lacZ signaling – S. cerevisiae, luminescence, secondary, dose response (AID 2388).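 Also: yeast reporter cells carrying a calcineurin-responsive lacZ construct stimulated with calcium chloride; luminescent beta-galactosidase reporter signal in whole cells rather than isolated phosphatase activity; potency for inhibition where a drop in reporter signal means calcineurin blockade.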 The format is functional, cell-based.
Serine/threonine-protein phosphatase, sequence (B9W6M3 whole entry): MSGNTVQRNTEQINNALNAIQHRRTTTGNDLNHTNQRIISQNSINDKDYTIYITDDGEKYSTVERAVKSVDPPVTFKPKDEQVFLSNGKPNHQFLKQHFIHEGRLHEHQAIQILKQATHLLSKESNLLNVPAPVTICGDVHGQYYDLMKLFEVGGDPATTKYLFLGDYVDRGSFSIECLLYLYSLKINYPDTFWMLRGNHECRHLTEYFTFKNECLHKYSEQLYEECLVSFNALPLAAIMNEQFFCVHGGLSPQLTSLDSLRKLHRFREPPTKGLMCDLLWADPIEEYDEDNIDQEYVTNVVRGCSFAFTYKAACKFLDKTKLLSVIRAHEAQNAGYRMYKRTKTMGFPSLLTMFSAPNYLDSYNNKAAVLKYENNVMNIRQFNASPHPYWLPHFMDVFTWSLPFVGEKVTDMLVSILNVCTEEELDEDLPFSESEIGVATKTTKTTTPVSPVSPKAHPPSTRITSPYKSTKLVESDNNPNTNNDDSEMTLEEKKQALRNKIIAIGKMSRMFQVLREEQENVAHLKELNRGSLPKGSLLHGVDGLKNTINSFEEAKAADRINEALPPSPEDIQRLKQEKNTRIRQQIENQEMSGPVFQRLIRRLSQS
A short description of assay [2]: fluconazole-exposed Candida albicans growth modulators – fluorescence, retest, confirmation (AID 2467). The format is functional, cell-based.
Assay [3] can be described thus: NIH-3T3 fibroblast cytotoxicity, dose response, cytotoxicity control, cell-based, fluorescence, Alamar Blue, secondary assay (AID 2327).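 Also: NIH-3T3 mouse fibroblasts cultured with fluconazole at 8 µg/mL.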 It counts as functional. A general note: The colour change of resazurin is a common sign of viable cells or microbes.
Assay [4] addresses NACHT, LRR and PYD domains-containing protein 3 (Homo sapiens, UniProt Q96P20). Briefly: NALP3 inhibitors in yeast, dose response, luminescent (AID 488799). The format is functional.
Assay [5] deals with ATP-dependent molecular chaperone HSP82 (Candida albicans (strain WO-1) (Yeast), UniProt C4YTQ8). Briefly: steroid-induced GRE reporter decrease in yeast – S. cerevisiae, luminescence, Hsp90 inhibitor project, dose response (AID 2400).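 Also: beta-galactosidase luminescence from glucocorticoid response element reporter as proxy for Hsp90 function; inhibitor potency where signal loss means Hsp90 inhibition.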 The format is functional, cell-based.
ATP-dependent molecular chaperone HSP82, sequence (C4YTQ8 whole entry): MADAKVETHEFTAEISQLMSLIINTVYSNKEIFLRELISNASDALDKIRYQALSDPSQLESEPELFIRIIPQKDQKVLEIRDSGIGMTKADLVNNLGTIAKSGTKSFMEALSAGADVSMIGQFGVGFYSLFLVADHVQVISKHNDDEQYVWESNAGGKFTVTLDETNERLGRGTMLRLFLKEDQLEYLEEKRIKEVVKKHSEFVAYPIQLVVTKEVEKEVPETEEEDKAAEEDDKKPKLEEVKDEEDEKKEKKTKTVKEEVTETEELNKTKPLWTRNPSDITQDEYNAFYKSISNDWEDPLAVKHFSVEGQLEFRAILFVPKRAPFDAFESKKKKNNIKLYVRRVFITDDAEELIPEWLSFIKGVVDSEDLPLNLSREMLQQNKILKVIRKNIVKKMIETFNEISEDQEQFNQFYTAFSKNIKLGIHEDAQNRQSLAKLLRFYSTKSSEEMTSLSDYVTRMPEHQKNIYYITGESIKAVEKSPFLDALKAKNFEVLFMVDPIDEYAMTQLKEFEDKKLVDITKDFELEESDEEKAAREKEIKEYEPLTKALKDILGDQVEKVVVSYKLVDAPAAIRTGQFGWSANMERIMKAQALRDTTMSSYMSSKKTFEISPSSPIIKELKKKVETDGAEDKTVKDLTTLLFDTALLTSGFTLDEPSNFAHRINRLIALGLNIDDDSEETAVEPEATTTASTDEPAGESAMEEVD
Assay [6] deals with Latent membrane protein 1 (Human herpesvirus 4 (strain B95-8), UniProt P03230). Nature of the assay: LMP1 TES1 pathway selectivity over dsRED control – imaging, HEK293T, dual-color eGFP/dsRED, cherry-picks, selectivity assay for LMP1 NF-kB inhibitor project, dose response (AID 588398). It counts as functional, cell-based.
Latent membrane protein 1, sequence (P03230 whole entry): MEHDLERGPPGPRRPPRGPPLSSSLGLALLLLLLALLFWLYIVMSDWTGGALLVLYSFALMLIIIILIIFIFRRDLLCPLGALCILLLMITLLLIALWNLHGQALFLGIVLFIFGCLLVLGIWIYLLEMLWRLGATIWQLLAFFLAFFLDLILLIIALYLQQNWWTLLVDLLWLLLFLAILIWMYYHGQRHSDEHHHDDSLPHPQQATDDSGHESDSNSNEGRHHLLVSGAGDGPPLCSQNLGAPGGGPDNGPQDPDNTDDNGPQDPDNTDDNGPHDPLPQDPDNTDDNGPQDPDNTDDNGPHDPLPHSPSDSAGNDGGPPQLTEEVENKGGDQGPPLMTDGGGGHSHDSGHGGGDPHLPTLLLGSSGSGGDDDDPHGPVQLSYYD
Assay [7] is described as follows: A cytotoxicity screen of small molecule inhibitors of the PhoP region in Salmonella typhi identified in the primary screen. [Related pubchem assays: 1850, 1864, 1985 ]. It counts as functional.
The target of assay [8] is T1, Microphthalmia-associated transcription factor (Homo sapiens, UniProt O75030).
T1 sequence (O75030 whole entry): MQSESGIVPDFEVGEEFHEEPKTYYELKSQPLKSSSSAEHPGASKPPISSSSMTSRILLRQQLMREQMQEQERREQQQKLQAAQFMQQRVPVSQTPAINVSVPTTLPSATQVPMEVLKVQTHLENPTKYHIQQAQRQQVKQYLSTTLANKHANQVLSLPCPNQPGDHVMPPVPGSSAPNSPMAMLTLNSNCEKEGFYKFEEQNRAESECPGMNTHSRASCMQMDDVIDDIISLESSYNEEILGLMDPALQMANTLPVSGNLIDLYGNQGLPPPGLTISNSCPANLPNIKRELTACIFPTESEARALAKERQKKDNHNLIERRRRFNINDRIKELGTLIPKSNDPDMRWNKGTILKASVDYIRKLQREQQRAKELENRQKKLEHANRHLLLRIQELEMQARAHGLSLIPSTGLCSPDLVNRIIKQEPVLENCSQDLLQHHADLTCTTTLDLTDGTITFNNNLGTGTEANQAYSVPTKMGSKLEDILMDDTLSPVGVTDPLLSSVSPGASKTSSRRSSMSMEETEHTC
Briefly: reducers of TRPM1 reporter luminescence, concentration series – cell-based, SK-MEL-5, cherry-picked, set 3, MITF inhibitor project, dose response (AID 493073).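 Also: SK-MEL-5 melanoma cells with luciferase driven by the MITF target TRPM1 promoter.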 The format is functional.

Assay [9] concerns HEK293. Nature of the assay: EBV LMP1 TES2 canonical NF-kB signalling blockers – cell-based, HEK293, luciferase, cherry-pick, dose response (AID 588343). The format is functional. The settings on record: Homo sapiens.
The test system of another assay is Escherichia coli. Nature of the assay: microbe, parasite or virus in culture.
The test system of assay [10] is BJ. Nature of the assay: cells. The format is functional, cell-based. The settings on record: Homo sapiens.
Assay [11] deals with HEK293. Nature of the assay: cells. The settings on record: Homo sapiens.
Assay [12] in a line: DRD fibroblast viability loss – cell-based, non-viral oncogenic, luminescence, dose response (AID 1934). It counts as functional. To be noted: Homo sapiens.
Assay [13] has as its system BJ. Nature of the assay: BJ-TERT-LT-ST fibroblast viability loss – cell-based, RAS-independent, luminescence, dose response (AID 1935).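 Also: BJ fibroblasts immortalized with TERT plus LT and ST oncogenes.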 It counts as functional. To be noted: Homo sapiens.
Assay [14] relates to HEK293. Nature of the assay: cells. The settings on record: Homo sapiens. This is another data set of the same source.
Assay [15] relates to BJ. Briefly: BJ-TERT fibroblast viability loss – cell-based, RAS-independent, luminescence, dose response (AID 1933). It counts as functional. To be noted: Homo sapiens.
Assay [16] is described as follows: Luminescence Cell-Based Dose Response HTS to Identify Activators of Luciferase Translation or Activity in H4 […] Cells. [Related pubchem assays: 1829 (Project Summary), 1814 (Primary HTS)]. The format is functional.
In a further assay the test system is H4. Nature of the assay: Luminescence Cell-Based Dose Response HTS to Identify Activators of 5'UTR Stem-Loop Driven Prion Protein mRNA Translation in H4 Neuroglioblastoma Cells. [Related pubchem assays: 1829 (Project Summary), 1814 (Primary HTS)]. It counts as functional. To be noted: Homo sapiens.
In assay [17] the target is COUP transcription factor 2 (Homo sapiens, UniProt P24468). Briefly: Luminescence-based cell-based high throughput dose response assay to identify inhibitors of COUP-TFII (NR2F2). The format is functional.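 Also: HEK293 cells transiently cotransfected with COUP-TFII expression vector and reporter; luciferase reporter luminescence driven by COUP-TFII from the pX2-168 reporter plasmid.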
COUP transcription factor 2, sequence (P24468 whole entry): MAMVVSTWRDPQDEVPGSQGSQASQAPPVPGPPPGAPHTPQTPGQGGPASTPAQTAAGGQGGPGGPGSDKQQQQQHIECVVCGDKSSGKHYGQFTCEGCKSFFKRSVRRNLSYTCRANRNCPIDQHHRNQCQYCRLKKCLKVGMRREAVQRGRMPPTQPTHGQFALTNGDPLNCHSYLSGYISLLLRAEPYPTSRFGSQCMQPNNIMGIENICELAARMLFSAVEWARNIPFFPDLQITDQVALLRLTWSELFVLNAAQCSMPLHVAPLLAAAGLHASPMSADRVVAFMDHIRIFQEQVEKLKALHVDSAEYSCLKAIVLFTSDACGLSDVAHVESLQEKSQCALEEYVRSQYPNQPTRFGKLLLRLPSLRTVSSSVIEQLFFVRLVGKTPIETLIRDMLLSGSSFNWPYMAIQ
Another assay has as its target Mu-type opioid receptor (Homo sapiens, UniProt P35372). Briefly: Counterscreen for agonists of heterodimerization of the mu 1 (OPRM1) and delta 1 (OPRD1) opioid receptors: Luminescence-based cell-based high throughput dose response assay to identify agonists of OPRM1 homodimerization. It counts as functional. In general terms: The purpose of a counterscreen is to sort out artefacts and off-target activity.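 Also: U2OS cells expressing OPRM1 and beta-arrestin as split beta-galactosidase partners.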

The target of assay [18] is Voltage-dependent T-type calcium channel subunit alpha-1H (Homo sapiens, UniProt O95180). The format is functional.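 Also: channel activity triggered by adding a high calcium stimulation buffer.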
Assay [19] concerns the target Delta-type opioid receptor (Homo sapiens, UniProt P41143). Briefly: Counterscreen for agonists of heterodimerization of the mu 1 (OPRM1) and delta 1 (OPRD1) opioid receptors: Luminescence-based cell-based high throughput dose response assay to identify agonists of OPRD1 homodimerization. [Related pubchem assays (depositor defined):AID504326, AID504355, AID504692, AID504904, AID504905]. It counts as functional.

Assay [20] has as its target 5-hydroxytryptamine receptor 5A (Homo sapiens, UniProt P47898). Briefly: Counterscreen for agonists of OPRM1-OPRD1 heterodimerization: luminescence-based cell-based high throughput dose response assay to identify agonists of 5-hydroxytryptamine (serotonin) 5A receptor (HTR5A). [Related pubchem assays (depositor defined):AID504326, AID504355, AID504692, AID504904, AID504905]. It counts as functional.

The nature of assay [21]: cells. It counts as functional, cell-based.
Assay [22] concerns Streptococcus sp. 'group A'. Nature of the assay: Streptococcus pyogenes SK(-)GAS viability under kanamycin – luminescence, BacTiterGlo, confirmation, counter-screen for streptokinase expression inhibitor project, dose response (AID 1900). It counts as functional, organism-based.
The nature of assay [23]: alpha-synuclein stem-loop luciferase translation blockers – H4 neuroglioma cells, luminescence, confirmation (AID 1988). It counts as functional, cell-based.
Assay [24] can be described thus: cells. The format is functional, cell-based. The source holds these as a separate data set.
In assay [25] the test system is BJ. Nature of the assay: growth inhibition of engineered Ras-driven BJ cells – cell-based, alamar blue fluorescence, cherrypicked samples, dose response (AID 2631).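 Also: confirmatory dose-response assay in RAS-dependent BJ fibroblasts engineered with TERT, LT and ST, with cytotoxicity read by fluorescence.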 It counts as functional. To be noted: Homo sapiens.
Assay [26] can be described thus: luciferase reporter signal suppression in cells – H4 neuroglioma cells, luminescence, dose response (AID 1990). The format is functional, cell-based.
Assay [27] relates to Vero. Nature of the assay: mammalian cell viability reduction – secondary assay, cytotoxicity control for West Nile virus antiviral project, dose response (AID 1650). The format is functional. To be noted: Chlorocebus sabaeus.
For a further assay, the system named is Streptococcus. Briefly: GAS UMAA2166 growth inhibition – luminescence, BacTiterGlo, counter-screen for streptokinase expression inhibitor project, dose response (AID 1915).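 Also: potency for reduction of bacterial viability or growth.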 It counts as functional, organism-based.
A short description of assay [28]: decrease of insulin promoter-GFP reporter – imaging, high-content screening, mouse beta cells (AID 1628). It counts as functional. The settings on record: MIN6.
A short description of assay [29]: Luminescence Cell-Based Dose Response HTS to Identify Inhibitors of 5'UTR Stem-Loop Driven Prion Protein mRNA Translation in H4 Neuroglioblastoma Cells. [Related pubchem assays: 1827 (Project Summary), 1813 (Primary HTS)]. The format is functional.
The subject of assay [30] is Vero. Nature of the assay: cells. It counts as functional. To be noted: Chlorocebus sabaeus.
Assay [31] in a line: MIN6 cell viability loss – mouse insulinoma, cytotoxicity control, dose response (AID 2122).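 Also: confirmatory high-throughput counterscreen run to flag cytotoxic compounds.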 The format is functional.

The source made the active and inactive calls.

5-hydroxytryptamine receptor 5A, sequence (P47898 whole entry): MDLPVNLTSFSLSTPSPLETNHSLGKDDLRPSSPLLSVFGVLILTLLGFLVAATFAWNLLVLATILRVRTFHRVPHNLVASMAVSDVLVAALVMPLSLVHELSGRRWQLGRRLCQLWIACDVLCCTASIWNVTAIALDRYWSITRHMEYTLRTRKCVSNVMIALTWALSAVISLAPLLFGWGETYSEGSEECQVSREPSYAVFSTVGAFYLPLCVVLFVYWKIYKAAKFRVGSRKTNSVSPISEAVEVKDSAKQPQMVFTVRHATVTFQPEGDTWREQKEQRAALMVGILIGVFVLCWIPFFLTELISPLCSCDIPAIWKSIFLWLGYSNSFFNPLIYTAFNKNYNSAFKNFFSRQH
NACHT, LRR and PYD domains-containing protein 3, sequence (Q96P20 whole entry, the tested form may be a part): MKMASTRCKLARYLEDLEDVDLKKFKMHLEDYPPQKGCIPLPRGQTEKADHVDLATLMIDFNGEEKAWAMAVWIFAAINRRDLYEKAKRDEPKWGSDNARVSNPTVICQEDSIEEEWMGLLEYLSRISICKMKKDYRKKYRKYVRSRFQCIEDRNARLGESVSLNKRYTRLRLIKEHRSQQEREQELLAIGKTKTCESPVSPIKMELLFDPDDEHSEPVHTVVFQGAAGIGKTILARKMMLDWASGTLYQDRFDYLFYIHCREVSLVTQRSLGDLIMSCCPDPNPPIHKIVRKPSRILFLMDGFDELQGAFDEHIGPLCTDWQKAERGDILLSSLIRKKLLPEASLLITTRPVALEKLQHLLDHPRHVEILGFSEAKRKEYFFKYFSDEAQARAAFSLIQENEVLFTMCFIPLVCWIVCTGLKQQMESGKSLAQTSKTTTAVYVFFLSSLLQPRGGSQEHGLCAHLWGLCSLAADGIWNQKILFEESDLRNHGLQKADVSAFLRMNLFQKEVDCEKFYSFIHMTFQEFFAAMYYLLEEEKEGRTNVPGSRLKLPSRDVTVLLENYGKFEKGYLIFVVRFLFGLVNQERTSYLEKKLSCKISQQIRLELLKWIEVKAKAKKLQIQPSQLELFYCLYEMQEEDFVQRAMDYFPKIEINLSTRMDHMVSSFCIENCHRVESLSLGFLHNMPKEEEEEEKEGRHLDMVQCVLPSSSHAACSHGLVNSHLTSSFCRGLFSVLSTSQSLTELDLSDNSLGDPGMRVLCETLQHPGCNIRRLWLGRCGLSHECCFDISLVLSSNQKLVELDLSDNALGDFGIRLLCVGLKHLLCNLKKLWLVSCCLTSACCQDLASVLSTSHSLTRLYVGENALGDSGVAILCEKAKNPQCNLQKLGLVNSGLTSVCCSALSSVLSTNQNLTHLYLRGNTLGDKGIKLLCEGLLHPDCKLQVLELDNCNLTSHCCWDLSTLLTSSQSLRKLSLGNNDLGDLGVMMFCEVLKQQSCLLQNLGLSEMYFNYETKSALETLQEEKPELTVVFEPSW
Mu-type opioid receptor, sequence (P35372 whole entry): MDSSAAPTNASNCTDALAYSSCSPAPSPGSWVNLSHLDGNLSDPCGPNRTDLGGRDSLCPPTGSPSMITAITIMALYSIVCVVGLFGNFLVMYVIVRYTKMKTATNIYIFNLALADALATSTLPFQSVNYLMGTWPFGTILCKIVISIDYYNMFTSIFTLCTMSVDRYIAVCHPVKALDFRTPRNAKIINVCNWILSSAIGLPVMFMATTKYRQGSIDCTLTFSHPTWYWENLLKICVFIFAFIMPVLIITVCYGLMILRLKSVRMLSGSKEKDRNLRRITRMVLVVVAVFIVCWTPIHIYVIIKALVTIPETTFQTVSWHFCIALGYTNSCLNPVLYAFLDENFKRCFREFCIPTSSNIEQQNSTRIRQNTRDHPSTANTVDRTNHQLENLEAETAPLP
Delta-type opioid receptor, sequence (P41143 whole entry): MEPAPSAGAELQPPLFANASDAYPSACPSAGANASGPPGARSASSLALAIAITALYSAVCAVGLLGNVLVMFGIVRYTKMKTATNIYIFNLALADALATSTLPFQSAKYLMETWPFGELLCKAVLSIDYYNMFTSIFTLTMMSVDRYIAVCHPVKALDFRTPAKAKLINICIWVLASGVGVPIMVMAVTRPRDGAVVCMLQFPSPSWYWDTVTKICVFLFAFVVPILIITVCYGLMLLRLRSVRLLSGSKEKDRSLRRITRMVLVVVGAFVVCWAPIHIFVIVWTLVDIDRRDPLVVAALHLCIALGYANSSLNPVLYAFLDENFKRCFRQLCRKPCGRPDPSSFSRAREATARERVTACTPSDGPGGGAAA
Beta Lactamase, sequence (Q932Y6 whole entry): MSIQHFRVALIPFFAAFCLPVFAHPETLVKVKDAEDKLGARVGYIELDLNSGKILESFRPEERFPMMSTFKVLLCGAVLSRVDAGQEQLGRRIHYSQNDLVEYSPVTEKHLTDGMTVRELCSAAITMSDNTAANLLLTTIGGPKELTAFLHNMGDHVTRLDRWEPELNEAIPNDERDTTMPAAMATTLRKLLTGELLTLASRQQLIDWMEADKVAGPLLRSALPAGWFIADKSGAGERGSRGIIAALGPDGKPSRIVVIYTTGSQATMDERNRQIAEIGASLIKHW

In general, IC50 refers to the concentration at which inhibition is half-maximal. Take `O=C(/C=C(O)/C=C/c1ccc(O)cc1)/C=C/c1ccc(O)cc1`: the IC50 in the assay on CHO is 40 µM (inactive); at Beta Lactamase it was 5.13 µM (active).

For orientation: EC50 means the concentration giving half of the maximal effect. For `CCOC(=O)N1C(=O)C2(CCCCC2)N(c2ccccc2Cl)C1=S`, the EC50 in [1] was > 180 µM (inactive); in [2], < 30 nM (active); in [3] it was 39.7 µM (active); in assay [5], 23.1 µM (active). Moreover, the half-maximal inhibitory concentration (IC50) in assay [4] was 5.92 µM (active).

Broadly, the AC50 is the midpoint of the concentration-response curve, whichever way the signal moves. For `Cc1cc(NCCCn2ccnc2)n2ncc(-c3ccccc3)c2n1`, the AC50 is 206 µM (active) in [6], 11 µM (active) in assay [8] and 2.56 µM (active) in the assay on HEK293 [9]. In assay [7], the concentration for a half-maximal effect (EC50) is > 50 µM (active).

Take `CCCCNC(=O)CCCn1c(=O)[nH]c2ccc(Br)cc2c1=O`: in the assay on Escherichia coli, the AC50 is 53.7 µM (active).

For `C=CCOc1ccc2[nH]c(NC(=O)OC)nc2c1`, the concentration for a half-maximal effect (EC50) in the assay with BJ [10] was 18.4 µM (inconclusive); in the assay on HEK293 [11] it was > 59.6 µM (inactive); in assay [12], 1.01 µM (active); in the assay with BJ [13] it was 1.46 µM (inconclusive); in the assay on HEK293 [14], > 59.6 µM (inactive); in the assay on BJ [15] it was 1.69 µM (active).

On to `O=[N+]([O-])c1c(C(Cl)Cl)nn(-c2ccc(Cl)cc2)c1N1CCCCC1`, for which the EC50 was > 180 µM (inactive) in assay [1], 436 nM (active) in assay [2], > 150 µM (inactive) in assay [3] and 18.7 µM (active) in assay [5].

Consider `COC(=O)c1c(NC(=O)Cc2cccs2)sc(C(=O)N2CCCCC2)c1C`, for which the EC50 in the assay with HEK293 [11] and in the assay on HEK293 [14] was > 59.7 µM (inactive) throughout.

In the case of `O=c1oc(-c2ccccc2)nc2sc3c(c12)CCCC3`, in the assay on Escherichia coli, the AC50 was 74.8 µM (active). Further, the 50% effective concentration (EC50) in [16] was 38.3 µM (active); in the assay with H4 it was 34.1 µM (active).

Turning to `Oc1ccc(Oc2ccc3c(C(F)(F)F)cc(C(F)(F)F)nc3n2)cc1`, in assay [17], the IC50 is 28.2 µM (inactive). For the same compound, the EC50 at Mu-type opioid receptor is > 92.5 µM (inactive); in assay [18], 3.15 µM (active); in assay [19] it was > 92.5 µM (inactive); in assay [20], > 92.5 µM (inactive).

By CC50 is commonly meant the concentration giving 50% cytotoxicity. Turning to `CCN(CC)c1ccc(/C=N/Nc2nc3ccccc3[nH]2)c(O)c1`, the concentration giving a half-maximal response (EC50) in “cells [21]” was 2.56 µM (active); with BJ [10], 2.15 µM (active); in [2], 1420 nM (active); in assay [22] it was 4.47 µM (active); in assay [23], 2.64 µM (active); in assay [3], 22.6 µM (inconclusive). The concentration giving a half-maximal response (EC50) was 115 µM (active) in the assay “cells [24]”; 571 nM (inconclusive) with BJ [25]; 1.37 µM (inconclusive) in [12]; 1.37 µM (inconclusive) in the assay with BJ [13]; 6.26 µM (active) in assay [26]; 7.8 µM (active) in the assay with Streptococcus. Further, the concentration giving a half-maximal response (EC50) in assay [29] was 8.71 µM (active); in the assay with BJ [15] it was 1.22 µM (active). Also, the half-maximal activity concentration (AC50) in assay [6] is 17.4 µM (active). Besides, the figures for the CC50 in the assay on Vero [27] and with Vero [30] were 2.03 µM (active) and 1.59 µM (active), respectively. The IC50 in assay [28] is 2.45 µM (active); in assay [31] it was 2.51 µM (active).
